Measured values: patent publication US20250296959A1, “B7-H3 TARGETING PEPTIDES AND CONSTRUCTS THEREOF” (Mariana Oncology Inc., priority 2024, published 2025)
Starred links: 1 amine or outer side, 2 acyl side, 3 side chain; linkers in the order of their positions; H or OH if unused. Positions of bridges follow the written chain, without caps; N, C: chain ends. Non-standard residues stand in square brackets, D forms with d. Residues, ends and D or L forms follow the SMILES beside them. *: point of attachment. Ala(1-CH2CO2H-4-piperidyl) = N[C@@H](CC1CCN(CC(=O)O)CC1)C(=O)O; Ala(piperidin-4-yl) = O=C([C@H](CC1CCN([*:3])CC1)N[*:1])[*:2]; DOTA = O=C(O)CN1CCN(CC(=O)O)CCN(CC(=O)*)CCN(CC(=O)O)CC1; Trp(5-F) = N[C@@H](Cc1c[nH]c2ccc(F)cc12)C(=O)O; Ala(4-THP) = N[C@@H](CC1CCOCC1)C(=O)O; Phe(2-OH) = N[C@@H](Cc1ccccc1O)C(=O)O; Val(3-OH) = CC(C)(O)[C@H](N)C(=O)O; 4Pal = N[C@@H](Cc1ccncc1)C(=O)O; aThr = C[C@H](O)[C@H](N)C(=O)O; Tle = CC(C)(C)[C@H](N)C(=O)O; hLeu = CC(C)CC[C@H](N)C(=O)O; Nle = CCCC[C@H](N)C(=O)O; Orn = NCCC[C@H](N)C(=O)O

molecular target: T1, human 4lg B7-H3 (Homo sapiens, UniProt Q5ZPR3); assay: Affinity determination by surface plasmon resonance (SPR) to 4Ig B7-H3; conditions: SPR KD—25° C., 4Ig B7-H3; 25° C. flow cell temperature
T1 sequence (Q5ZPR3 29-534): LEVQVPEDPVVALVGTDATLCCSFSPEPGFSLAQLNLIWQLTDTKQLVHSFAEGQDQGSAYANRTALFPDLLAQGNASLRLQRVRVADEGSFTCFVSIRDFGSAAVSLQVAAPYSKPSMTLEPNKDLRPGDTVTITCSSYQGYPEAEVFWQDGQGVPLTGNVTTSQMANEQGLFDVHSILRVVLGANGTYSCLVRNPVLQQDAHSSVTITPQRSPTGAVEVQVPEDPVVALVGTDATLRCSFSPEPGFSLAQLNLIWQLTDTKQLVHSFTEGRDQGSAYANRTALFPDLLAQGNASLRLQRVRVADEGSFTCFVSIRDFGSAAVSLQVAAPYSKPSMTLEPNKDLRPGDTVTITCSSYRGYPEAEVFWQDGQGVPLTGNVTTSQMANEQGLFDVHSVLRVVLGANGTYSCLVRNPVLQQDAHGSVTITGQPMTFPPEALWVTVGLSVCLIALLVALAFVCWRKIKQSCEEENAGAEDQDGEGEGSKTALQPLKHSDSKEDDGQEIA

Kd	SMILES
1 to 10 nM	CC(=O)N[C@@H](CCC(C)C)C(=O)N[C@@H](Cc1ccc(O)cc1)C(=O)N[C@H]1CSSC[C@@H](C(=O)N[C@@H](Cc2c[nH]c3ccc(F)cc23)C(=O)N[C@@H](Cc2ccccc2)C(=O)N2CCC[C@H]2C(=O)N[C@H](CCCCNC(=O)CN2CCN(CC(=O)O)CCN(CC(=O)O)CCN(CC(=O)O)CC2)C(N)=O)NC(=O)[C@H](Cc2ccc(O)cc2)NC(=O)[C@H](C(C)C)NC(=O)[C@H](CC(=O)O)NC(=O)[C@H](Cc2ccc(O)cc2)NC(=O)[C@H](CCCCN)NC(=O)CNC(=O)[C@H](C(C)(C)C)NC1=O [compound 248, Ac-hLeu-Y-C-Tbg-G-K-Y-D-V-Y-C-5FW-F-Pro-dLys(DOTA)-CONH2] (Ac-[hLeu]YC[Tle]GKYDVYC[Trp(5-F)]FP[dK](DOTA)-NH2; disulfide 3-11)
1 to 10 nM	CCCC[C@H](NC(C)=O)C(=O)N[C@@H](Cc1ccc(O)cc1)C(=O)N[C@H]1CSSC[C@@H](C(=O)N[C@@H](Cc2c[nH]c3ccccc23)C(=O)N[C@@H](Cc2ccccc2)C(=O)N[C@H](C(=O)N[C@H](CCCCNC(=O)CN2CCN(CC(=O)O)CCN(CC(=O)O)CCN(CC(=O)O)CC2)C(N)=O)[C@@H](C)O)NC(=O)[C@H](Cc2ccc(O)cc2)NC(=O)[C@H](C(C)C)NC(=O)[C@H](CC(=O)O)NC(=O)[C@H](Cc2ccc(O)cc2)NC(=O)[C@H](CCCN)NC(=O)CNC(=O)[C@H](C(C)C)NC1=O [compound 63, Ac-Nle-Y-C-V-G-Orn-Y-D-V-Y-C-W-F-Thr-dLys(DOTA)-CONH2] (Ac-[Nle]YCVG[Orn]YDVYCWFT[dK](DOTA)-NH2; disulfide 3-11)
1 to 10 nM	CC(=O)N[C@@H](CCC(C)C)C(=O)N[C@@H](Cc1ccc(O)cc1)C(=O)N[C@H]1CSSC[C@@H](C(=O)N[C@@H](Cc2c[nH]c3ccccc23)C(=O)N[C@@H](Cc2ccccc2)C(=O)N[C@H](C(N)=O)[C@@H](C)O)NC(=O)[C@H](Cc2ccc(O)cc2)NC(=O)[C@H](C(C)C)NC(=O)[C@H](CC(=O)O)NC(=O)[C@H](Cc2ccc(O)cc2)NC(=O)[C@H](CCCCNC(=O)CN2CCN(CC(=O)O)CCN(CC(=O)O)CCN(CC(=O)O)CC2)NC(=O)CNC(=O)[C@H](C(C)C)NC1=O [compound 145, Ac-hLeu-Y-C-V-G-Lys(DOTA)-Y-D-V-Y-C-W-F-Thr-CONH2] (Ac-[hLeu]YCVGK(DOTA)YDVYCWFT-NH2; disulfide 3-11)
10 to 100 nM	CCCC[C@H](NC(C)=O)C(=O)N[C@@H](Cc1ccc(O)cc1)C(=O)N[C@H]1CSSC[C@@H](C(=O)N[C@@H](Cc2c[nH]c3ccccc23)C(=O)N[C@@H](Cc2ccccc2)C(=O)N[C@H](C(=O)N[C@H](CCCCNC(=O)CN2CCN(CC(=O)O)CCN(CC(=O)O)CCN(CC(=O)O)CC2)C(N)=O)[C@@H](C)O)NC(=O)[C@H](Cc2ccc(O)cc2)NC(=O)[C@H](C(C)C)NC(=O)[C@H](CC(=O)O)NC(=O)[C@H](Cc2ccc(O)cc2)NC(=O)[C@H](Cc2ccncc2)NC(=O)CNC(=O)[C@H](C(C)C)NC1=O [compound 79, Ac-Nle-Y-C-V-G-4PyA-Y-D-V-Y-C-W-F-Thr-dLys(DOTA)-CONH2] (Ac-[Nle]YCVG[4Pal]YDVYCWFT[dK](DOTA)-NH2; disulfide 3-11)
1 to 10 nM	CC(=O)N[C@@H](CCC(C)C)C(=O)N[C@@H](Cc1ccc(O)cc1)C(=O)N[C@H]1CSSC[C@@H](C(=O)N[C@@H](Cc2c[nH]c3ccc(F)cc23)C(=O)N[C@@H](Cc2ccccc2)C(=O)N[C@H](C(=O)N[C@H](CCCCNC(=O)CN2CCN(CC(=O)O)CCN(CC(=O)O)CCN(CC(=O)O)CC2)C(N)=O)[C@@H](C)O)NC(=O)[C@H](Cc2ccc(O)cc2)NC(=O)[C@H](C(C)C)NC(=O)[C@H](CC(=O)O)NC(=O)[C@H]([C@H](C)O)NC(=O)[C@H](CCCCN)NC(=O)CNC(=O)[C@H](C(C)C)NC1=O [compound 178, Ac-hLeu-Y-C-V-G-K-alloThr-D-V-Y-C-5FW-F-Thr-dLys(DOTA)-CONH2] (Ac-[hLeu]YCVGK[aThr]DVYC[Trp(5-F)]FT[dK](DOTA)-NH2; disulfide 3-11)
1 to 10 nM	CC(=O)N[C@@H](CCC(C)C)C(=O)N[C@@H](Cc1ccc(O)cc1)C(=O)N[C@H]1CSSC[C@@H](C(=O)N[C@@H](Cc2c[nH]c3ccc(F)cc23)C(=O)N[C@@H](Cc2ccccc2)C(=O)N2CCC[C@H]2C(=O)N[C@H](CCCCNC(=O)CN2CCN(CC(=O)O)CCN(CC(=O)O)CCN(CC(=O)O)CC2)C(=O)O)NC(=O)[C@H](Cc2ccc(O)cc2)NC(=O)[C@H](C(C)C)NC(=O)[C@H](CC(=O)O)NC(=O)[C@H](CC2CCOCC2)NC(=O)[C@H](CCCCN)NC(=O)CNC(=O)[C@H](C(C)(C)C)NC1=O [compound 304, Ac-hLeu-Y-C-Tbg-G-K-ThpA-D-V-Y-C-5FW-F-Pro-dLys(DOTA)-COOH] (Ac-[hLeu]YC[Tle]GK[Ala(4-THP)]DVYC[Trp(5-F)]FP[dK](DOTA)-OH; disulfide 3-11)

same assay, conditions: SPR KD—37° C., 4Ig B7-H3; 37° C. flow cell temperature

Kd	SMILES
1 to 10 nM	CC(=O)N[C@@H](CCC(C)C)C(=O)N[C@@H](Cc1ccc(O)cc1)C(=O)N[C@H]1CSSC[C@@H](C(=O)N[C@@H](Cc2c[nH]c3ccc(F)cc23)C(=O)N[C@@H](Cc2ccccc2)C(=O)N[C@H](C(=O)N[C@H](CCCCNC(=O)CN2CCN(CC(=O)O)CCN(CC(=O)O)CCN(CC(=O)O)CC2)C(=O)O)C(C)(C)O)NC(=O)[C@H](Cc2ccccc2O)NC(=O)[C@H](C(C)C)NC(=O)[C@H](CC(=O)O)NC(=O)[C@H](CC2CCOCC2)NC(=O)[C@H](CC2CCNCC2)NC(=O)CNC(=O)[C@H](C(C)(C)C)NC1=O [compound 467, Ac-hLeu-Y-C-Tbg-G-PipAla-ThpA-D-V-20HPhe-C-5FW-F-hydroxyVal-dLys(DOTA)-COOH] (Ac-[hLeu]YC[Tle]G[Ala(piperidin-4-yl)][Ala(4-THP)]DV[Phe(2-OH)]C[Trp(5-F)]F[Val(3-OH)][dK](DOTA)-OH; disulfide 3-11)
1 to 10 nM	CC(=O)N[C@@H](CCC(C)C)C(=O)N[C@@H](Cc1ccc(O)cc1)C(=O)N[C@H]1CSSC[C@@H](C(=O)N[C@@H](Cc2c[nH]c3ccc(F)cc23)C(=O)N[C@@H](Cc2ccccc2)C(=O)N[C@H](C(N)=O)C(C)(C)O)NC(=O)[C@H](Cc2ccc(O)cc2)NC(=O)[C@H](C(C)C)NC(=O)[C@H](CC(=O)O)NC(=O)[C@H](CC2CCN(CC(=O)O)CC2)NC(=O)[C@H](CCCCNC(=O)CN2CCN(CC(=O)O)CCN(CC(=O)O)CCN(CC(=O)O)CC2)NC(=O)CNC(=O)[C@H](C(C)(C)C)NC1=O [compound 419, Ac-hLeu-Y-C-Tbg-G-Lys(DOTA)-Pip(CH2COOH)Ala-D-V-Y-C-5FW-F-hydroxyVal-CONH2] (Ac-[hLeu]YC[Tle]GK(DOTA)[Ala(1-CH2CO2H-4-piperidyl)]DVYC[Trp(5-F)]F[Val(3-OH)]-NH2; disulfide 3-11)
< 1 nM	CC(=O)N[C@@H](CCC(C)C)C(=O)N[C@@H](Cc1ccc(O)cc1)C(=O)N[C@H]1CSSC[C@@H](C(=O)N[C@@H](Cc2c[nH]c3ccc(F)cc23)C(=O)N[C@@H](Cc2ccccc2)C(=O)N[C@H](C(=O)N[C@H](CO)C(=O)O)C(C)(C)O)NC(=O)[C@H](Cc2ccc(O)cc2)NC(=O)[C@H](C(C)C)NC(=O)[C@H](CC(=O)O)NC(=O)[C@H](CC2CCN(C(=O)CN3CCN(CC(=O)O)CCN(CC(=O)O)CCN(CC(=O)O)CC3)CC2)NC(=O)[C@H](CC2CCNCC2)NC(=O)CNC(=O)[C@H](C(C)(C)C)NC1=O [compound 449, Ac-hLeu-Y-C-Tbg-G-PipAla-Pip(DOTA)Ala-D-V-Y-C-5FW-F-hydroxyVal-dSer-COOH] (Ac-[hLeu]YC[Tle]G[Ala(piperidin-4-yl)][Ala(piperidin-4-yl)](DOTA)DVYC[Trp(5-F)]F[Val(3-OH)][dS]-OH; disulfide 3-11)
